{"source": "patent US20070232669A1", "about": "“N-phenylbenzotriazolyl c-kit inhibitors” (priority 2006, published 2007)", "origin": "cited, not measured here", "key": {"[1]": {"tested_on": "MO7e human leukemia cells"}, "[2]": {"tested_on": "MO7e human leukemia cells", "remark": "listed apart in the source"}}, "note": "Where a name gives a salt, the structure may show the parent alone."}
{"smiles": "Cc1ccc(NC(=O)c2ccc(CN3CCN(C)CC3)cc2)cc1Nc1nccc(-c2cccnc2)n1", "note": "[Gleevec, imatinib mesylate]", "values": [{"measurement": "GM-CSF stimulated growth of MO7e human leukemia cells", "setting": "[1]", "result": "not affected"}, {"measurement": "Kit ligand-stimulated growth of MO7e human leukemia cells", "setting": "[2]", "result": "inhibited"}]}
